Test results reported in patent US20080070883A1, “Use of LXR modulators for the prevention and treatment of skin aging” (Wyeth, priority 2006, published 2008).

What was measured:
[1] = tested on: serine palmitoyl transferase (SPTLC1); test: TaqMan quantitative PCR, SPTLC1 gene expression in NHEKs; type: cell-based, human; details: 1 μM, FIG. 10A
Method: (§1) Add QIAzol® Lysis Reagent (QIAGEN Cat Number 79306) to the cells. Scrape the cells and place into a Falcon Polypropylene tube. Let stand at room temperature for 5 minutes. Add 1 ml of cells to microfuge tubes. Add 200 μl of chloroform, vortex, let stand for 5 minutes. Centrifuge at 4° C. for 15 minutes at 14,000 RPM. Add an equal volume of 70% ETOH (diluted with DEPC water). Add 600 μl to the RNeasy® column from the RNeasy® Mini Kit (QIAGEN Cat. Number 74106) centrifuge at 14,000 RPM at room temperature for 1 minute, discard flow-through. Add remainder of sample to the column, centrifuge, discard flow-through. Add 350 μl of RW1 buffer from the RNeasy® Mini Kit to the column, centrifuge at room temperature for 1 minute, discard flow-through. […] TaqMan technology was used for quantitative PCR for the evaluation of MMP, TNFα, TIMP, IL-8, ASAH1, SPTLC1, SMPD1, LASS2, TXNRD1, GPX3, GSR, CAT, ABCA1, ABCA2, ABCA12, ABCA13, ABCG1, decorin, and LXRα/β gene expression in keratinocytes and fibroblasts. […] Setup TaqMan with QuantiTect Multiplex PCR Kit (QIAGEN cat. Number 204543): 2× master mix: 25 μl; Single Tube Assay: 2.5 μl; Applied Biosystems Primers Probe set (part number 4308329)-18S forward primer: 0.25 μl, 18S reverse primer: 0.25 μl, 18S probe: 0.25 μl; water to 50 μl; 5 μl cDNA. […]

TNFα = test: TaqMan quantitative PCR, TNFα gene expression in NHEKs; type: cell-based, human; details: 1 μM, FIG. 2
Method: as §1

MMP3 [2] = test: TaqMan quantitative PCR, MMP3 gene expression in NHEKs; type: cell-based, human; details: UV-exposed (8 J/m^2), 1 μM, FIG. 3
Method: as §1

ABCG1 = test: TaqMan quantitative PCR, ABCG1 gene expression in NHEKs; type: cell-based, human; details: 1 μM, FIG. 6A
Method: as §1

ABCA2 = test: TaqMan quantitative PCR, ABCA2 gene expression in NHEKs; type: cell-based, human; details: 1 μM, FIG. 6A
Method: as §1

TIMP1 [3] = test: TaqMan quantitative PCR, TIMP1 gene expression in NHEKs; type: cell-based, human; details: 1 μM, FIG. 4
Method: as §1

[4] = tested on: glutathione reductase (GSR); test: TaqMan quantitative PCR, GSR gene expression in NHEKs; type: cell-based, human; details: 1 μM, FIG. 11
Method: as §1

[5] = tested on: ceramide synthase (LASS2); test: TaqMan quantitative PCR, LASS2 gene expression in NHEKs; type: cell-based, human; details: 1 μM, FIG. 10A
Method: as §1

ABCA13 = test: TaqMan quantitative PCR, ABCA13 gene expression in NHEKs; type: cell-based, human; details: 1 μM, FIG. 6A
Method: as §1

LXRα = test: TaqMan quantitative PCR, LXRα gene expression in NHEKs; type: cell-based, human; details: 1 μM, FIG. 1A
[6] = tested on: sphingomyelin phosphodiesterase (SMPD1); test: TaqMan quantitative PCR, SMPD1 gene expression in NHEKs; type: cell-based, human; details: 1 μM, FIG. 10A
Method: as §1

IL-8 = test: TaqMan quantitative PCR, IL-8 gene expression in NHEKs; type: cell-based, human; details: UV-exposed (8 J/m^2), 1 μM, FIG. 5
Method: as §1

MMP3 [7] = test: TaqMan quantitative PCR, MMP3 gene expression in BJ human fibroblasts; type: cell-based; details: 5 ng/ml rhTNFα, 1 μM, FIG. 8B
Method: (§2) Add QIAzol® Lysis Reagent (QIAGEN Cat Number 79306) to the cells. Scrape the cells and place into a Falcon Polypropylene tube. Let stand at room temperature for 5 minutes. Add 1 ml of cells to microfuge tubes. Add 200 μl of chloroform, vortex, let stand for 5 minutes. Centrifuge at 4° C. for 15 minutes at 14,000 RPM. Add an equal volume of 70% ETOH (diluted with DEPC water). Add 600 μl to the RNeasy® column from the RNeasy® Mini Kit (QIAGEN Cat. Number 74106) centrifuge at 14,000 RPM at room temperature for 1 minute, discard flow-through. Add remainder of sample to the column, centrifuge, discard flow-through. Add 350 μl of RW1 buffer from the RNeasy® Mini Kit to the column, centrifuge at room temperature for 1 minute, discard flow-through. […]
(§3) TaqMan technology was used for quantitative PCR for the evaluation of MMP, TNFα, TIMP, IL-8, ASAH1, SPTLC1, SMPD1, LASS2, TXNRD1, GPX3, GSR, CAT, ABCA1, ABCA2, ABCA12, ABCA13, ABCG1, decorin, and LXRα/β gene expression in keratinocytes and fibroblasts. […]
(§4) Setup TaqMan with QuantiTect Multiplex PCR Kit (QIAGEN cat. Number 204543): 2× master mix: 25 μl; Single Tube Assay: 2.5 μl; Applied Biosystems Primers Probe set (part number 4308329)—18S forward primer: 0.25 μl, 18S reverse primer: 0.25 μl, 18S probe: 0.25 μl; water to 50 μl; 5 μl cDNA. […]

[8] = tested on: thioredoxin reductase (TXNRD1); test: TaqMan quantitative PCR, TXNRD1 gene expression in NHEKs; type: cell-based, human; details: 1 μM, FIG. 11
Method: as §1

LXRβ = test: TaqMan quantitative PCR, LXRβ gene expression in NHEKs; type: cell-based, human; details: UV-exposed (8 J/m^2), 1 μM, FIG. 1B
MMP1 = test: TaqMan quantitative PCR, MMP1 gene expression in BJ human fibroblasts; type: cell-based; details: 5 ng/ml rhTNFα, 1 μM, FIG. 8A
Method: as §2, §3, §4

acid ceramidase (ASAH1) = test: TaqMan quantitative PCR, ASAH1 gene expression in NHEKs; type: cell-based, human; details: 1 μM, FIG. 10A
Method: as §1

catalase (CAT) = test: TaqMan quantitative PCR, CAT gene expression in NHEKs; type: cell-based, human; details: 1 μM, FIG. 11
Method: as §1

ABCA1 = test: TaqMan quantitative PCR, ABCA1 gene expression in NHEKs; type: cell-based, human; details: 1 μM, FIG. 6A
Method: as §1

ABCA12 = test: TaqMan quantitative PCR, ABCA12 gene expression in NHEKs; type: cell-based, human; details: 1 μM
Method: as §1

decorin = test: TaqMan quantitative PCR, decorin gene expression in NHEKs; type: cell-based, human; details: UV-exposed (8 J/m^2), 1 μM, FIG. 7
Method: as §1

[9] = tested on: glutathione peroxidase (GPX3); test: TaqMan quantitative PCR, GPX3 gene expression in NHEKs; type: cell-based, human; details: 1 μM, FIG. 11
Method: as §1

TIMP1 [10] = test: TaqMan quantitative PCR, TIMP1 gene expression in BJ human fibroblasts; type: cell-based; details: 1 μM, FIG. 9
Method: as §2, §3, §4

## O=S(=O)(c1ccccc1)N(CC(F)(F)F)c1ccc(C(O)(C(F)(F)F)C(F)(F)F)cc1 [T1317, N-(2,2,2-trifluoroethyl)-N-{4-[2,2,2-trifluoro-1-hydroxy-1-(trifluoromethyl)ethyl]phenyl}benzene sulfonamide]
[1]
  SPTLC1 expression: induction
TNFα; UV-exposed (8 J/m^2)
  UV-induced expression of TNFα: reduced
TNFα; UV-unexposed
  basal expression of TNFα: reduced
MMP3 [2]
  UV-induced MMP-3 expression: inhibition
ABCG1
  ABCG1 expression: induction
ABCA2
  ABCA2 expression: induction
TIMP1 [3]; UV-exposed (8 J/m^2)
  TIMP1 expression: induced
TIMP1 [3]; UV-unexposed
  TIMP1 expression: induced
[4]
  GSR expression: induction
[5]
  LASS2 expression: induction
ABCA13
  ABCA13 expression: induction
LXRα; UV-exposed (8 J/m^2)
  expression of LXRα: induced
LXRα; UV-unexposed
  expression of LXRα: induced
[6]
  SMPD1 expression: induction
IL-8
  UV-induced expression of IL-8: reduced
MMP3 [7]
  TNFα-induced MMP-3 expression: inhibition
[8]
  TXNRD1 expression: induction
LXRβ
  UV-mediated inhibition of LXRβ expression: reversed
MMP1
  TNFα-induced MMP1 expression: inhibition
Acid ceramidase (ASAH1)
  ASAH1 expression: induction
Catalase (CAT)
  CAT expression: induction
ABCA1
  ABCA1 expression: induction
ABCA12; FIG. 6A
  ABCA12 expression: induction
ABCA12; UV-exposed (8 J/m^2), FIG. 6B
  UV-induced inhibition of ABCA12 expression: reversed
decorin
  UVB-mediated inhibition of decorin expression: reversed
[9]
  GPX3 expression: induction
TIMP1 [10]; TNFα-exposed (5 ng/ml rhTNFα)
  TIMP1 expression: induced
TIMP1 [10]; TNFα-unexposed
  TIMP1 expression: induced
